System: HT29
Assay: pERK immunofluorescence normalised to no-drug reference (=1); higher = more ERK phosphorylation (less pathway inhibition)
Settings: drug treatment time 24 h, EGF time 8 h
Experimental: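 A375 CRISPRa-EGFR (A375_aEGFR2) or HT29 cells were treated with two-drug dose combinations (vemurafenib, LY3009120, cobimetinib) for 24 h, then stimulated with EGF (100 ng/mL) or mock medium for 8 h. pERK (T202/Y204) was measured by immunofluorescence as the cytosolic population average, normalised to an untreated no-drug reference of the block (=1). Averages of 2 technical replicates. A375 in 5% FBS, HT29 in 10% FBS.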

CCCS(=O)(=O)Nc1ccc(F)c(C(=O)c2c[nH]c3ncc(-c4ccc(Cl)cc4)cc23)c1F [Vemurafenib] + O=C(c1ccc(F)c(F)c1Nc1ccc(I)cc1F)N1CC(O)([C@@H]2CCCCN2)C1 [Cobimetinib]
pERK immunofluorescence normalised
Settings	drug B concentration 0 µM	drug B concentration 0.0001 µM	drug B concentration 0.0003162 µM	drug B concentration 0.001 µM	drug B concentration 0.00316228 µM	drug B concentration 0.01 µM	drug B concentration 0.0316228 µM	drug B concentration 0.1 µM	drug B concentration 0.316228 µM	drug B concentration 1 µM
drug A concentration 0 µM, EGF 0 ng/mL	–	1.1	0.976	0.886	0.53	0.231	0.148	0.115	0.102	0.0988
drug A concentration 0 µM, EGF 100 ng/mL	–	1.01	0.982	0.979	0.936	0.829	0.673	0.483	0.218	0.117
drug A concentration 0.000316 µM, EGF 0 ng/mL	1	1.07	1.06	0.85	0.482	0.233	0.136	0.102	0.0952	0.0916
drug A concentration 0.000316 µM, EGF 100 ng/mL	1.1	1.09	1.13	1.03	1.03	0.928	0.82	0.539	0.227	0.111
drug A concentration 0.001 µM, EGF 0 ng/mL	1.05	1.06	1.03	0.855	0.463	0.217	0.127	0.106	0.0917	0.0915
drug A concentration 0.001 µM, EGF 100 ng/mL	1.05	1.11	1.14	1.08	1.02	0.873	0.751	0.499	0.213	0.108
drug A concentration 0.00316 µM, EGF 0 ng/mL	1.07	1.06	1.02	0.836	0.463	0.225	0.132	0.0985	0.0922	0.0903
drug A concentration 0.00316 µM, EGF 100 ng/mL	1.05	1.13	1.17	1.04	1.03	0.887	0.769	0.496	0.213	0.106
drug A concentration 0.01 µM, EGF 0 ng/mL	0.924	0.922	0.868	0.73	0.416	0.201	0.124	0.0992	0.093	0.0898
drug A concentration 0.01 µM, EGF 100 ng/mL	1.03	1.04	1.04	0.958	1	0.902	0.738	0.473	0.213	0.107
drug A concentration 0.0316 µM, EGF 0 ng/mL	0.742	0.727	0.695	0.513	0.389	0.189	–	–	–	–
drug A concentration 0.0316 µM, EGF 100 ng/mL	0.843	0.912	0.902	0.933	0.854	–	–	–	–	–

Reference: the supplement of paper PMC9912026
